Among the data in patent publication US11396517B1, “Exo-aza spiro inhibitors of menin-MLL interaction” (Janssen Pharmaceutica NV, priority 2017, dated 2022) are IC50 values, retold here.

Experiment [1] deals with T1, menin (Homo sapiens, UniProt O00255, T541A).
T1 construct: Menin (a.a. 1-610-6×his tag)
T1 sequence (O00255 with tags, fused parts or gaps T541A): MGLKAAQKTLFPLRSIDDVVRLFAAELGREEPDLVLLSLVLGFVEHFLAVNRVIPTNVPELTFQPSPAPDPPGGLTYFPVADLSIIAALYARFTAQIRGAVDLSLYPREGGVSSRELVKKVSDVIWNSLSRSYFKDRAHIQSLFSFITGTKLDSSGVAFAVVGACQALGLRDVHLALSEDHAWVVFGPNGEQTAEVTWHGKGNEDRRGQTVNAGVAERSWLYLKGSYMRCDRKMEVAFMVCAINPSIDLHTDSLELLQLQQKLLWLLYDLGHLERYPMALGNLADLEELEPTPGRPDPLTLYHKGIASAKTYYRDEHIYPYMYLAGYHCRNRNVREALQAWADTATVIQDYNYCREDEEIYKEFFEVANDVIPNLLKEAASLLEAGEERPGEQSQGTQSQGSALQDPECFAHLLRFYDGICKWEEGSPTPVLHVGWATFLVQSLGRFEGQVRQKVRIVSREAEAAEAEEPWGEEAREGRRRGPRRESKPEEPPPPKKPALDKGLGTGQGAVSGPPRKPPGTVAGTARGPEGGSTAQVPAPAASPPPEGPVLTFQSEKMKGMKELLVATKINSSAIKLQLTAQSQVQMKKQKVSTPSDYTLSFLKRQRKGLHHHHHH
Description: Menin/MLL homogenous time-resolved fluorescence (HTRF) assay. The format is binding. The following applies: location 2; read-out: (2) location 2 Menin HTRF assay (IC50 (nM)). The method, boiled down:
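Displacement of 75 nM FITC-MBM1 from terbium-cryptate-labeled His-tagged menin 1-610 ([…]) was read as the 520/490 nm HTRF ratio. Compound (11-point, 3-fold series) got 5 min with menin before peptide, then 15 min at ambient; 0.5% DMSO, Tris pH 7.5.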

Experiment [2] concerns MV-4-11. Description: Proliferation assay B (spheroid assay) MV-4-11. It counts as cell-based, human. The following applies: Homo sapiens, MV4-11, 192 h, MV-4-11 cells, confluence at day 8, absolute IC50; read-out: (3b) Spheroid assay MV-4--11 (IC50(μM)) Assay B. As for the experimental part: 3b) Proliferation Assay B
(§1) The anti-proliferative effect of menin/MLL protein/protein interaction inhibitor test compounds was assessed in human leukemia cell lines. The cell lines MV-4-11 and MOLM14 harbor MILL translocations and express the MILL fusion proteins MLL-AF4 and MLL-AF9, respectively, as well as the wildtype protein from the second allele. […] K562 was used as a control cell line containing two MLL wildtype alleles in order to exclude compounds that display general cytotoxic effects.
(§2) MV-4-11 and MOLM14 were cultured in RPMI-1640 (Sigma Aldrich) supplemented with 10% fetal bovine serum (HyClone), 2 mM L-glutamine (Sigma Aldrich) and 50 μg/ml gentamycin (Gibco). K562 were propagated in RPMI-1640 (Sigma Aldrich) supplemented with 20% fetal bovine serum (HyClone), 2 mM L-glutamine (Sigma Aldrich) and 50 μg/ml gentamycin (Gibco).
(§3) In order to assess the anti-proliferative effects, 1,500 MV-4-11, 300 MOLM14 cells or 750 K562 cells were seeded in 200 μl media per well in 96-well round bottom, ultra-low attachment plates (Costar, catalogue number 7007). Cell seeding numbers were chosen based on growth curves to ensure linear growth throughout the experiment. Test compounds were added at different concentrations and the DMSO content was normalized to 0.3%. Cells were incubated for 8 d at 37° C. and 5% CO2. Spheroid like growth was measured in real-time by live-cell imaging (IncuCyteZOOM, Essenbio, 4× objective) acquiring images at day 8. Confluence (%) as a measure of spheroid size was determined using an integrated analysis tool.
In order to determine the effect of the test compounds over time, the confluence in each well as a measure of spheroid size, was calculated. Confluence […] at the beginning of the experiment (t=0) was used as baseline for the calculation.
Absolute IC50 values were calculated as percent change in confluence as follows:
LC=Low Control: cells treated with 1 μM of the cytotoxic agent staurosporin
HC=High Control: Mean confluence (%) (DMSO treated cells) % Effect=100−(100*(Sample−LC)/(HC−LC))
To determine the IC50 a curve is fitted to the plot of % Effect vs Log 10 compound concentration using a sigmoidal fit with a variable slope and fixing the maximum to 100% and the minimum to 0%.

The subject of experiment [3] is MOLM14. Put plainly: Proliferation assay B (spheroid assay) MOLM14. The following applies: Homo sapiens, MOLM-14, 192 h, MOLM14 cells, confluence at day 8, absolute IC50; read-out: (3b) Spheroid assay MOLM14 (IC50(μM)) Assay B. The format is cell-based, human. The method, boiled down:
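IC50 derived from % effect on day-8 imaged confluence, scaled between DMSO-treated cells (high) and 1 μM staurosporine (low), using a variable-slope fit constrained 0-100%. Cells seeded as spheroids in ultra-low-attachment plates and exposed to compound for 8 days, 0.3% DMSO.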

The test system of experiment [4] is MV-4-11. Put plainly: Proliferation assay A (spheroid assay) MV-4-11. It counts as cell-based, human. The following applies: Homo sapiens, MV4-11, 192 h, MV-4-11 cells, 8 d, AUC of confluence against time, absolute IC50; read-out: (3a) Spheroid assay MV-4-11 (IC50(μM)) Assay A. The procedure:
3a) Proliferation Assay A
as §1, §2
as §3, with “MOLM14” for “MOLM14 cells”, “monitored” for “measured”, “one image every four hours for 8 d.” for “images at day 8.”
In order to determine the cumulative effect of the test compounds over time, the area under the curve (AUC) in a plot of confluence against time was calculated. Confluence at the beginning of the experiment (t=0) was used as baseline for the AUC calculation.
Absolute IC50 values were calculated according to the following procedure: % Control=(AUC sample/AUC control)*100
AUC control mean AUC of control values (cells without compound/DMSO as vehicle control)
A non-linear curve fit was applied using the least squares (ordinary) fit method to the plot of % control versus compound concentration. Based on this, the absolute IC50 value (half maximal inhibitory concentration of the test compound causing an anti-proliferative effect of 50% relative to the vehicle control) was calculated.

Structures are written as SMILES.

As for `Fc1ccc(NC2CC3(CCN(c4ncnc5sc(CC(F)(F)F)cc45)C3)C2)cc1` (mixture of isomers) [Compound 158], the IC50 (in general, the midpoint of a concentration-inhibition curve) in experiment [1] was determined as 72.2 nM; in experiment [2], 2.41 µM; in experiment [3], 1.98 µM.
As for `N#Cc1ccccc1NC1CC2(CCN(c3ncnc4sc(CC(F)(F)F)cc34)C2)C1` (mixture of isomers) [Compound 162], the IC50 is 90 nM in experiment [1], 2.84 µM in experiment [2] and above 3.75 µM in experiment [3].
In the same order, the values of `N#Cc1cccc(NC2CC3(CCN(c4ncnc5sc(CC(F)(F)F)cc45)C3)C2)c1` (mixture of isomers) [Compound 163] are 77.6 nM, above 3.75 µM and above 3.75 µM.
On to `N#Cc1ccc(NC2CC3(CCN(c4ncnc5sc(CC(F)(F)F)cc45)C3)C2)cc1` (mixture of isomers) [Compound 164], for which the IC50 was found to be 12.2 nM in experiment [1], 1.09 µM in experiment [2] and 1.97 µM in experiment [3].
Take `CS(=O)(=O)N1CCC(CNC(=O)c2ccc(NC3CC4(CCN(c5ncnc6sc(CC(F)(F)F)cc56)C4)C3)cc2)CC1` (mixture of isomers) [Compound 177]: the IC50 stood at 16.2 nM in experiment [1], 1.02 µM in experiment [2] and 1.22 µM in experiment [3].
In the same order, the values of `Cn1nnc2ccc(NC3CC4(CCN(c5ncnc6sc(CC(F)(F)F)cc56)C4)C3)cc21` (mixture of isomers) [Compound 216] are 38 nM, above 3.75 µM and above 3.75 µM.
In the case of `CN1CCN(Cc2cc(NC3CC4(CCN(c5ncnc6sc(CC(F)(F)F)cc56)C4)C3)ccc2C#N)CC1` (mixture of isomers) [Compound 225], the IC50 in experiment [1] is 22.7 nM; in experiment [2], 1.95 µM.
As to `CNC(=O)c1ccc(NC2CC3(CCN(c4ncnc5sc(CC(F)(F)F)cc45)C3)C2)cc1NCCN(C)C` (mixture of isomers) [Compound 239], the figures for the IC50 in experiment [1] and in experiment [2] were 33.6 nM and above 3.75 µM, respectively.
In the same order, the values of `CN1CCN(c2cc(NC3CC4(CCN(c5ncnc6sc(CC(F)(F)F)cc56)C4)C3)ccc2C#N)CC1` (mixture of isomers) [Compound 240] are 8.6 nM and 1.14 µM.
For `CNC(=O)c1ccc(NC2CC3(CCN(c4ncnc5sc(CC(F)(F)F)cc45)C3)C2)cc1CCCN1CCN(S(C)(=O)=O)CC1` (mixture of isomers) [Compound 251], the IC50 is 171 nM in experiment [1], above 3.75 µM in experiment [2] and above 3.75 µM in experiment [3].
As for `CNc1nc(N2CCC3(CC(Nc4ccc(C#N)cn4)C3)C2)c2cc(CC(F)(F)F)sc2n1` (mixture of isomers) [Compound 271], the IC50 in experiment [1] was 22.5 nM; in experiment [2] it was above 3.75 µM; in experiment [3], above 3.75 µM.
On to `O=c1[nH]c2cc(NC3CC4(CCN(c5ncnc6sc(CC(F)(F)F)cc56)C4)C3)ccc2o1` (mixture of isomers) [Compound 308], for which the IC50 is 5.6 nM in experiment [1], 2.64 µM in experiment [2] and above 3.75 µM in experiment [3].
In the case of `FC(F)(F)Cc1cc2c(N3CCC4(CC(Nc5ccc6cnoc6c5)C4)C3)ncnc2s1` (mixture of isomers) [Compound 315], the IC50 was 4.2 nM in experiment [1], 1.22 µM in experiment [2] and 3.41 µM in experiment [3].
In the same order, the values of `O=c1[nH]c2ccc(NC3CC4(CCN(c5ncnc6sc(CC(F)(F)F)cc56)C4)C3)cc2[nH]1` (mixture of isomers) [Compound 319] are 17.4 nM, above 3.75 µM and above 3.75 µM.
With `O=C(c1ccc(NC2CC3(CCN(c4ncnc5sc(CC(F)(F)F)cc45)C3)C2)cc1)N1CCOCC1` (mixture of isomers) [Compound 333], the figures for the IC50 in experiment [1], in experiment [2] and in experiment [3] were 10.3 nM, 0.12 µM and 0.14 µM, respectively.
In the same order, the values of `Nc1nc(N2CCC3(CC(Nc4ccc5[nH]c(=O)oc5c4)C3)C2)c2cc(CC(F)(F)F)sc2n1` (mixture of isomers) [Compound 384] are 32.6 nM, above 3.75 µM and 1.49 µM.
Turning to `CNc1nc(N2CCC3(CC(Nc4ccc5[nH]c(=O)oc5c4)C3)C2)c2cc(CC(F)(F)F)sc2n1` (mixture of isomers) [Compound 399], the results for the IC50 in experiment [1], in experiment [2] and in experiment [3] were 26.4 nM, above 3.75 µM and above 3.75 µM, respectively.
In the case of `Cc1nc(N2CCC3(CC(Nc4ccc(CC#N)cc4)C3)C2)c2cc(CC(F)(F)F)sc2n1` (mixture of isomers) [Compound 404], the IC50 in experiment [1] was 16.4 nM; in experiment [2], above 3.75 µM; in experiment [3], above 3.75 µM.
Consider `CNC(=O)c1ccc(NC2CC3(CCN(c4ncnc5sc(CC(F)(F)F)cc45)C3)C2)cc1C#N` (mixture of isomers) [Compound 422], for which the results for the IC50 in experiment [1], in experiment [2] and in experiment [3] were 34.1 nM, above 3.75 µM and above 3.75 µM, respectively.
Take `CN(C)CCNC(=O)c1ccc(NC2CC3(CCN(c4ncnc5sc(CC(F)(F)F)cc45)C3)C2)cc1` (racemic) [Compound 73]: the IC50 in experiment [1] was 2.5 nM; in experiment [2], 0.3 µM; in experiment [3] it was 1.21 µM.
Take `CS(=O)(=O)NCCCNC(=O)c1ccc(NC2CC3(CCN(c4ncnc5sc(CC(F)(F)F)cc45)C3)C2)nc1` (single isomer, unassigned) [Compound 275]: the IC50 in experiment [1] is 2.4 nM; in experiment [2] it was 1.09 µM.
Regarding `FC(F)(F)Cc1cc2c(N3CCC4(CC(Nc5ccc(-c6cn[nH]c6)cc5)C4)C3)ncnc2s1` (single isomer, unassigned) [Compound 327], the values for the IC50 in experiment [1], in experiment [4] and in experiment [3] were 8.4 nM, 0.56 µM and above 3.75 µM, respectively.
Turning to `CNC(=O)c1ccc(NC2CC3(CCN(c4nc(NC)nc5sc(CC(F)(F)F)cc45)C3)C2)cc1` (centres unmarked) [Compound 64], the concentration for half-maximal inhibition (IC50) in experiment [1] was 2.4 nM; in experiment [4] it was 0.14 µM; in experiment [3], 0.92 µM.
